Assay [1] has as its target T1, Cannabinoid receptor 2 (Homo sapiens, UniProt P34972). Description: SAR analysis of antagonists of the Cannabinoid Receptor 2 using an Image-Based Assay - Set 3. [Related pubchem assays (depositor defined):AID2013, AID2026]. In kind it is functional.
Assay [2] deals with T1, Cannabinoid receptor 2. Description: SAR analysis of agonists of the Cannabinoid Receptor 2 using an Image-Based Assay - Set 3. [Related pubchem assays (depositor defined):AID2013, AID2026]. Type of assay: functional.
Assay [3] concerns the target T2, G-protein coupled receptor 35 (Homo sapiens, UniProt Q9HC97). Description: SAR analysis of Agonists of the GPR35 Receptor using an Image-Based Assay - Set 4. [Related pubchem assays (depositor defined):AID2013, AID2026]. In kind it is functional.
In assay [4] the target is T2, G-protein coupled receptor 35. Description: SAR analysis of Antagonists of the GPR35 Receptor using an Image-Based Assay - Set 6. [Related pubchem assays (depositor defined):AID2013, AID2026]. In kind it is functional.
For assay [5], the target named is T3, G-protein coupled receptor 55 (Homo sapiens, UniProt Q9Y2T6). Description: SAR Analysis of Selective Antagonists of GPR55 using an Image-Based Assay - Set 4. [Related pubchem assays (depositor defined):AID2013, AID2026]. Type of assay: functional.
Assay [6] addresses T4, Cannabinoid receptor 1 (Homo sapiens, UniProt P21554). Description: SAR analysis of agonists of the Cannabinoid Receptor 1 using an Image-Based Assay - Set 4. [Related pubchem assays (depositor defined):AID2013, AID2026]. Type of assay: functional.
For assay [7], the target named is T4, Cannabinoid receptor 1. Description: SAR analysis of antagonists of the Cannabinoid Receptor 1 using an Image-Based Assay - Set 4. [Related pubchem assays (depositor defined):AID2013, AID2026]. In kind it is functional.
Assay [8] deals with T5, Tyrosine-protein phosphatase non-receptor type 22 (Homo sapiens, UniProt Q9Y2R2).
T5 sequence (Q9Y2R2 whole entry): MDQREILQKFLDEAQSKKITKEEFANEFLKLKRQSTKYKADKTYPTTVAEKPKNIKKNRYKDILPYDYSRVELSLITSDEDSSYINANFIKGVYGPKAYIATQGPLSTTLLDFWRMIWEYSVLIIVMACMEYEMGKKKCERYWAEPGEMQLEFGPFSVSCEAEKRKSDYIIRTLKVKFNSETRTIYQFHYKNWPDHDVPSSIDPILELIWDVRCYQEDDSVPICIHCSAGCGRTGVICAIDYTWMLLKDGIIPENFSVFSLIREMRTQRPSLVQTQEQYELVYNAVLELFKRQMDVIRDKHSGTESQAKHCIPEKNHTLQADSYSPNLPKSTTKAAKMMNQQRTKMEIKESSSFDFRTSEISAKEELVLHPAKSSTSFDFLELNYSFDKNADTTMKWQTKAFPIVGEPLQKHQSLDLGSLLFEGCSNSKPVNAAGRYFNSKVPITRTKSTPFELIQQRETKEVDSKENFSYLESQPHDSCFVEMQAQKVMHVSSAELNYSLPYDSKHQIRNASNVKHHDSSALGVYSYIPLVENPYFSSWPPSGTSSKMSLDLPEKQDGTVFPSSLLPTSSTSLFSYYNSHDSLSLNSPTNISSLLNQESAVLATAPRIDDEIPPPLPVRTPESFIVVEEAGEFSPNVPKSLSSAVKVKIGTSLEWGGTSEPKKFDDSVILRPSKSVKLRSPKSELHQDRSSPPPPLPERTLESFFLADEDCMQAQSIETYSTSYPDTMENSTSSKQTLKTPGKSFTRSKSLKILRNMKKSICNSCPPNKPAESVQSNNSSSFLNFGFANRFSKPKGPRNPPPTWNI
Description: SAR LYP1 Fluorescent Assay using OMFP substrate for In Vitro dose response studies - Set 3. [Related pubchem assays (depositor defined):AID1779, AID1784, AID2140, AID2686]. Type of assay: functional.

Assay [9] deals with T5, Tyrosine-protein phosphatase non-receptor type 22. Briefly: inhibition of lymphoid tyrosine phosphatase LYP – biochemical, pCAP fluorogenic substrate, fluorescence, set 3, SAR follow-up (AID 449727). In kind it is functional.
Assay [10] is described as follows: HEK-293T viability loss after treatment – luminescence, T-cell screen hits, cytotoxicity control for TCR NF-kB inhibitor project, dose response (AID 489026).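 Further: cells exposed to compound about 14 hours before the viability readout.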 Type of assay: functional, cell-based.
The target in assay [11] is T6, Tyrosine-protein phosphatase non-receptor type 7 (Homo sapiens, UniProt P35236).
T6 sequence (P35236 whole entry): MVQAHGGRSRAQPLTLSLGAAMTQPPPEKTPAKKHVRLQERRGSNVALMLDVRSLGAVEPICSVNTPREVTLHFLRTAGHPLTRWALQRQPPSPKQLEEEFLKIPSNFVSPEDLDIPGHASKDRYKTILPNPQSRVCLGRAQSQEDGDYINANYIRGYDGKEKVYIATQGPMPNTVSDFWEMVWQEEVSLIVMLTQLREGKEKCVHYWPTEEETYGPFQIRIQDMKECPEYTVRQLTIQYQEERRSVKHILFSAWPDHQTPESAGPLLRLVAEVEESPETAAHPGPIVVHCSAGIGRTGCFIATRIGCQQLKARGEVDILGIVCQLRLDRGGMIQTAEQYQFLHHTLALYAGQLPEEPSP
Description: inhibition of hematopoietic tyrosine phosphatase HePTP – biochemical, set 2, SAR follow-up (AID 449736). In kind it is functional.

The test system of another assay is J774.A1. Briefly: Confirmation of image-based Screening Assay for Inhibitors of Phagocytosis. [Related pubchem assays (depositor defined):AID1029, AID1643]. Type of assay: functional, cell-based. Conditions: Mus musculus.
Assay [12] has as its target Tyrosine-protein phosphatase non-receptor type 12 (Homo sapiens, UniProt Q05209). Briefly: SAR Selectivity Analysis of small molecule inhibitors of PEST using pCAP in a fluorescence assay. [Related pubchem assays (depositor defined):AID1779, AID1784, AID2135]. Type of assay: functional.
The next assay concerns the target Major prion protein (Homo sapiens, UniProt P04156). In kind it is functional, cell-based.
Assay [13] deals with T2, G-protein coupled receptor 35. Briefly: SAR analysis of Agonists of the GPR35 Receptor using an Image-Based Assay - Set 3. [Related pubchem assays (depositor defined):AID1961, AID1965]. Type of assay: functional.
Assay [14] addresses T3, G-protein coupled receptor 55. Description: SAR analysis of selective Agonists of GPR55 using an Image-Based Assay - Set 2. [Related pubchem assays (depositor defined):AID1961, AID1965]. Type of assay: functional.
Assay [15] concerns the target T4, Cannabinoid receptor 1. Briefly: SAR analysis of agonists of the Cannabinoid Receptor 1 using an Image-Based Assay - Set 3. [Related pubchem assays (depositor defined):AID1961, AID1965]. Type of assay: functional.
Assay [16] concerns the target T1, Cannabinoid receptor 2. Description: SAR analysis of agonists of the Cannabinoid Receptor 2 using an Image-Based Assay - Set 2. [Related pubchem assays (depositor defined):AID1961, AID1965]. Type of assay: functional.
In assay [17] the target is T1, Cannabinoid receptor 2. Briefly: SAR analysis of antagonists of the Cannabinoid Receptor 2 using an Image-Based Assay - Set 2. [Related pubchem assays (depositor defined):AID1961, AID1965]. Type of assay: functional.
Assay [18] concerns the target T2, G-protein coupled receptor 35. Description: SAR analysis of Antagonists of the GPR35 Receptor using an Image-Based Assay - Set 4. [Related pubchem assays (depositor defined):[…]]. In kind it is functional.
The target of assay [19] is T4, Cannabinoid receptor 1. Description: SAR analysis of antagonists of the Cannabinoid Receptor 1 using an Image-Based Assay - Set 3. [Related pubchem assays (depositor defined):AID1961, AID1965]. In kind it is functional.
The target of assay [20] is Alkaline phosphatase, placental type (Homo sapiens, UniProt P05187). Description: human placental alkaline phosphatase inhibition – biochemical, luminescence, confirmation (AID 1512). Type of assay: functional.
Assay [21] addresses T7, Alkaline phosphatase, tissue-nonspecific isozyme (Homo sapiens, UniProt P05186).
T7 sequence (P05186 whole entry): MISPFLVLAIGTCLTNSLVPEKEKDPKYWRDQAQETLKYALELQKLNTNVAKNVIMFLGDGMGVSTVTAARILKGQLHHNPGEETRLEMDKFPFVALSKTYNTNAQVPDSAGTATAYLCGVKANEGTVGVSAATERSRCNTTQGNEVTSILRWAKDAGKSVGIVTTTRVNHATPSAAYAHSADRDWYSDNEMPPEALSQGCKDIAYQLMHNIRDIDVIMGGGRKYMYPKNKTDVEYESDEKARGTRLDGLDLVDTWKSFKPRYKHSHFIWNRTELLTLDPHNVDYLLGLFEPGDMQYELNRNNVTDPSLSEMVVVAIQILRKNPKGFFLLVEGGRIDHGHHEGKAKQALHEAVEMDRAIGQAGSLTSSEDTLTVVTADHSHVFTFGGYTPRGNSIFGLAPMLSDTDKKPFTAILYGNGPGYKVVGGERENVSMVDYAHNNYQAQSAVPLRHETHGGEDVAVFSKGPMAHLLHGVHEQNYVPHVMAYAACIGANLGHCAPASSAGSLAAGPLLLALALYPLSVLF
Description: potency against alkaline phosphatase TNAP – biochemical, luminescent, dose response, SAR follow-up (AID 1056).

The target in another assay is Prothrombin (Homo sapiens, UniProt P00734). Description: Thrombin 1536 HTS Dose Response Confirmation. [Related pubchem assays: 1046 (Thrombin 1536 HTS; hits were confirmed in this assay)]. In kind it is functional.
A further assay has as its target Coagulation factor XII (Homo sapiens, UniProt P00748). Type of assay: functional.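 Further: activated factor XIIa alpha cleaving a fluorogenic AMC peptide substrate; inhibitor potency from loss of enzyme activity.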

Activity calls are given as the source filed them. Where only a bound is given, the exact number is not on record here.

Our source for the IC50 and EC50 values is ChEMBL document CHEMBL1201862, “PubChem BioAssay data set” (2004).

The term IC50 denotes the midpoint of a concentration-inhibition curve. Usually EC50 stands for the concentration that produces a half-maximal response.

Take `CNC(=O)c1cc2c(=O)n3ccccc3nc2n(C2CCCC2)c1=N`: the IC50 at Cannabinoid receptor 2 [1] was > 32 µM (inactive); in [4], > 32 µM (inactive); in assay [5], 5.92 µM (active); at Cannabinoid receptor 1 [7], > 32 µM (inactive). The EC50 on Cannabinoid receptor 2 [2] is 2.52 µM (active); in assay [3] it was > 32 µM (inactive); on Cannabinoid receptor 1 [6] it was > 32 µM (inactive).
With `CCOC(=O)C(C)Oc1cccc2c(=O)n(CC(=O)NCc3ccc4c(c3)OCO4)ccc12` (stereo unspecified), the IC50 was > 100 µM (inactive) in assay [8]; > 100 µM (inactive) in [9]; > 80 µM (inactive) in assay [10]; 11.4 µM (active) in assay [11]; 4.93 µM (active) in the assay with J774.A1; > 100 µM (inactive) in assay [12].
On to `O=C(Nc1cc(S(=O)(=O)N2CCOCC2)ccc1N1CCCC1)c1cc2c(s1)CCCC2`, for which the IC50 at Major prion protein was 5.47 µM (active); at Cannabinoid receptor 2 [17] it was > 32 µM (inactive); in assay [18], > 32 µM (inactive); in the assay “cells”, > 138 µM (inactive); on Cannabinoid receptor 1 [19], > 32 µM (inactive). Besides, the EC50 in assay [13] is > 32 µM (inactive); in assay [14], 1.57 µM (active); at Cannabinoid receptor 1 [15], > 32 µM (inactive); at Cannabinoid receptor 2 [16], > 32 µM (inactive).
As for `Cc1ccc(-n2nnnc2SCC(=O)c2ccc(O)c(O)c2)cc1`, the results for the IC50 in assay [20] and in assay [21] were 1.58 µM (active) and 8.58 µM (active), respectively.
Regarding `COCCNC(=S)NN=C1CCCCCC1`, the IC50 is > 50 µM (not active) at Prothrombin and > 50 µM (inactive) at Coagulation factor XII.
